46 compounds from patent EP4714952A1, “COMPOUND AND USE THEREOF” (Autobio Group Co., Ltd., priority 2023, dated 2025) can be followed below.

The target in test [1] is T1, PDE3A (Homo sapiens, UniProt Q14432).
T1 construct: purchased BPS
The test can be described thus: In vitro inhibitory effect on PDE3A enzyme (AMP-Glo assay). The class given is biochemical. How it is done: (§1) 1. Table 1 Main reagents and consumables for in vitro detection of inhibitory effect
(§2) 2. Preparation of experimental buffers Reaction buffer (5×): 50 mM Tris-HCl (buffer), 50 mM MgCl2, 0.5% BSA, 0.25% Tween-20, pH 7.4, stored at -20°C. 3. […] The starting concentration of the reference substance serial dilution was the Low control, and 1% DMSO-reaction buffer served as the High control. • 3) The enzyme was diluted to the desired concentration with 1× reaction buffer, and 4 µL of the diluted solution was transferred to the assay plate. After centrifugation, the 384-well low dead-volume microplate was sealed with sealing film and incubated in the incubator at 23°C for 15 minutes. • 4) The substrate cAMP was diluted to the desired concentration using 1× reaction buffer, and 5 µL of the diluted solution was transferred to the assay plate. After centrifugation, the plate was sealed again and incubated in the incubator at 23°C for 60 minutes (PDE3A) or 10 minutes (PDE4B1). • 5) Then, 5 µL of Reagent I from the AMP-Glo™ Assay Kit was added to the assay plate. After centrifugation and sealing, the plate was incubated in the incubator at 23°C for 60 minutes. • 6) The detection solution was prepared according to the AMP-Glo™ Assay Kit instructions, and 10 µL of the detection solution was added to the assay plate. After centrifugation and sealing, the plate was incubated in the incubator at 23°C for 60 minutes. • 7) The readout was recorded using a multimode microplate reader. 4. […] 5.

Test [2] concerns the target T2, PDE4B1 (Homo sapiens, UniProt Q07343).
T2 construct: purchased Sigma
As to the kind of experiment: In vitro inhibitory effect on PDE4B1 enzyme (AMP-Glo assay). It is filed as biochemical. The method, then:
as §1, §2

Setting [3] is: AMP-Glo Assay Kit, substrate cAMP, 23°C, 60 minutes, read-out: PDE3A (IC50).
Where [4] appears, read: AMP-Glo Assay Kit, substrate cAMP, 23°C, 10 minutes, read-out: PDE4B1 (IC50).

pIC50: −log10 of the molar value. Where a name gives a salt, the structure may show the parent alone. Read-outs that look alike come from different tables or passages of the source.

T1 sequence (Q14432 whole entry): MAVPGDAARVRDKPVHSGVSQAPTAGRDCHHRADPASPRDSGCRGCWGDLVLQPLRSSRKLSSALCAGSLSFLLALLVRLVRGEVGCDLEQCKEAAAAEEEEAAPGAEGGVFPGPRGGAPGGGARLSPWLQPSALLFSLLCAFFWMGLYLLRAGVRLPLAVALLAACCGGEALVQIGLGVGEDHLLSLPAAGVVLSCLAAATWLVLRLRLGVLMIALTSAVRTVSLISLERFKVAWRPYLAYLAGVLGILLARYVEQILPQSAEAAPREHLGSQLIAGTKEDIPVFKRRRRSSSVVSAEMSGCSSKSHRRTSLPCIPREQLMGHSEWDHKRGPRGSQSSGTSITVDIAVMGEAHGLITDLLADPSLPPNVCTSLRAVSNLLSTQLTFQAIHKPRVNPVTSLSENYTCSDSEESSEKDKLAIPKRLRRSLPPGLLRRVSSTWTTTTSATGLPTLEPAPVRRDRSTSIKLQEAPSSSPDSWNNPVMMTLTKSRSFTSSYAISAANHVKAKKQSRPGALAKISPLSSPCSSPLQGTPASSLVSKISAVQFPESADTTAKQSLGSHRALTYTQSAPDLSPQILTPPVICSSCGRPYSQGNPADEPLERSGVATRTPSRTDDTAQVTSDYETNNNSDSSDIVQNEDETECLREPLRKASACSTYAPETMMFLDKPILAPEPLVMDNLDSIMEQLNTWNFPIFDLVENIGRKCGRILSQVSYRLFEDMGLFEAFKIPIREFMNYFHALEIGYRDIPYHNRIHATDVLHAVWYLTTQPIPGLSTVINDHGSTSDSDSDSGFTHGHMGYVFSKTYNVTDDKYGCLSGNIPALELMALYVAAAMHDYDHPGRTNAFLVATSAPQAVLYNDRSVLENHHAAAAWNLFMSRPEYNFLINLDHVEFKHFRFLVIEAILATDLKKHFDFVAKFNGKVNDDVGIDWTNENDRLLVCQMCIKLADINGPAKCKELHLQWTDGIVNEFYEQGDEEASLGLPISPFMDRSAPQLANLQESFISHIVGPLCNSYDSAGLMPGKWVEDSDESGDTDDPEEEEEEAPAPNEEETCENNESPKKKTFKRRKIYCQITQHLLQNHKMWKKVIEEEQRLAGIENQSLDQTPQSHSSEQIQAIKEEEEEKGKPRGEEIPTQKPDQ
T2 sequence (Q07343 whole entry): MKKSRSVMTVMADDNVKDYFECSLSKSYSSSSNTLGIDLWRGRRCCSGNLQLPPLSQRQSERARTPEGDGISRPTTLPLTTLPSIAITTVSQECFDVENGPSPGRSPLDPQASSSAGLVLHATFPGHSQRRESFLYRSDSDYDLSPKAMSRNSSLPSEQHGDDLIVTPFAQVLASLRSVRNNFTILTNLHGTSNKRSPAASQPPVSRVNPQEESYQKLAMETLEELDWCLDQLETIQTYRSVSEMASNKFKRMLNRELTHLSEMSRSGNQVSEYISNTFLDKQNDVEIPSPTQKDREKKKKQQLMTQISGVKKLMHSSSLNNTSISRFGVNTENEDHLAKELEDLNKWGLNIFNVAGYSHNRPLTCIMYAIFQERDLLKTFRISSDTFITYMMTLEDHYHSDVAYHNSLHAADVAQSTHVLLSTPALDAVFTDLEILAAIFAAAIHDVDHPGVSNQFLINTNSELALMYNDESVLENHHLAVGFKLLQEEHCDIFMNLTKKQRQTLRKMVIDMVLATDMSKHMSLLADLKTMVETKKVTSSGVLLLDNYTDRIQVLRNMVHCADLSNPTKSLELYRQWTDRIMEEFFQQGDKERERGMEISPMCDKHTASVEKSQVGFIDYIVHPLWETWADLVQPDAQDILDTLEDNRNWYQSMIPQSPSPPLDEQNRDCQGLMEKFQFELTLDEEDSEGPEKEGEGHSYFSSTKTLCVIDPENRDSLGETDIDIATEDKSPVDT

As for `COc1cc2c(cc1OC)-c1cc(N(CCC#N)c3c(C)cc(C)cc3C)nc(=O)n1CC2` [Compound 1], the values for the pIC50 in test [1] and in test [2] were 9.96 and 6.53, respectively. Consider `COc1cc2c(cc1OC)-c1cc(=Nc3c(C)cc(C)cc3C)n(CCC(O)CO)c(=O)n1CC2` (centres unmarked) [Compound 5], for which the pIC50 (in general, −log10 of the IC50, conventionally taken in molar units) in test [1] (setting [3]) was 10.00; in test [2] (setting [4]), 6.01.

Consider `COc1cc2c(cc1OC)-c1cc(N(CCC(O)CO)c3c(C)cc(C)cc3C)nc(=O)n1CC2` (centres unmarked) [Compound 6], for which the pIC50 in test [1] (setting [3]) was 10.59; in test [2] (setting [4]), 6.92.

Regarding `CONC(=O)NCCn1c(=Nc2c(C)cc(C)cc2C)cc2n(c1=O)CCc1cc(OC)c(OC)cc1-2` [Compound 8], the pIC50 in test [1] is 9.07; in test [2], 6.42. On the same counts, the results for `COc1cc2c(cc1OC)C(C)Cn1c-2cc(=Nc2c(C)cc(C)cc2C)n(CCNC(N)=O)c1=O` (centres unmarked) [Compound 9] are 8.25 and 6.94.

Compound `Cc1cc(C)c(N=c2cc3n(c(=O)n2CCNC(N)=O)CCc2cc4c(cc2-3)OCO4)c(C)c1` [Compound 11] had a pIC50 in test [1] of 6.93. As for `CCOc1cc2c(cc1OC)CCn1c-2cc(=Nc2c(C)cc(C)cc2C)n(CCNC(N)=O)c1=O` [Compound 12], the pIC50 in test [1] is 8.13; in test [2], 6.47. With `Cc1cc(C)c(N=c2cc3n(c(=O)n2CCNC(N)=O)CCc2cc4c(cc2-3)OCCO4)c(C)c1` [Compound 13], in test [1], the pIC50 was 7.35. For the compound `CNCCn1c(=Nc2c(C)cc(C)cc2C)cc2n(c1=O)CCc1cc(OC)c(OC)cc1-2` [Compound 16], the pIC50 in test [1] (setting [3]) was 8.18. Take `COc1cc2c(cc1OC)-c1cc(=Nc3c(C)cc(C)cc3C)n(CCC(C)(C)O)c(=O)n1CC2` [Compound 17]: the pIC50 in test [1] (setting [3]) was 9.27; in test [2] (setting [4]), 5.30.

As for `COc1cc2c(cc1OC)-c1cc(N(CCC(C)(C)O)c3c(C)cc(C)cc3C)nc(=O)n1CC2` [Compound 18], the pIC50 in test [1] (setting [3]) is 10.06; in test [2] (setting [4]) it was 6.67. For the compound `COc1cc2c(cc1OC)-c1cc(=Nc3c(C)cc(C)cc3C)n(CCNC(N)=O)c(=O)n1CCS2` [Compound 20], the pIC50 is 7.60 in test [1] and 6.60 in test [2].

`COc1cc2c(cc1OC)S(=O)(=O)CCn1c-2cc(=Nc2c(C)cc(C)cc2C)n(CCNC(N)=O)c1=O` [Compound 21]: the pIC50 was 6.00 in test [1] and 5.16 in test [2]. On the same counts, the results for `COc1cc2c(cc1OC)-c1cc(=Nc3c(C)cc(C)cc3C)n(CCNC(N)=O)c(=O)n1CCO2` [Compound 22] are 8.48 and 6.14. On the same counts, the results for `CCOc1cc2c(cc1OC)-c1cc(=Nc3c(C)cc(C)cc3C)n(CCNC(=O)c3c(O)nnn3C)c(=O)n1CC2` [Compound 23] are 11.24 and 7.89. Consider `COc1cc2c(cc1OCc1ccccc1)CCn1c-2cc(=Nc2c(C)cc(C)cc2C)n(CCNC(N)=O)c1=O` [Compound 24], for which the pIC50 in test [1] (setting [3]) is 6.00.

As to `COc1cc2c(cc1OC1CCOC1)CCn1c-2cc(=Nc2c(C)cc(C)cc2C)n(CCNC(N)=O)c1=O` (centres unmarked) [Compound 25], the pIC50 in test [1] is 8.35; in test [2], 6.42. Turning to `COc1cc2c(cc1OCC(F)(F)F)CCn1c-2cc(=Nc2c(C)cc(C)cc2C)n(CCNC(=O)c2c(O)nnn2C)c1=O` [Compound 26], the results for the pIC50 in test [1] (setting [3]) and in test [2] (setting [4]) were 9.47 and 6.38, respectively. Take `COc1cc2c(cc1OCC1CC1)CCn1c-2cc(=Nc2c(C)cc(C)cc2C)n(CCNC(=O)c2c(O)nnn2C)c1=O` [Compound 27]: the pIC50 in test [1] (setting [3]) is 8.67; in test [2] (setting [4]), 6.04. For `COCCOc1cc2c(cc1OC)-c1cc(=Nc3c(C)cc(C)cc3C)n(CCNC(=O)c3c(O)nnn3C)c(=O)n1CC2` [Compound 28], the pIC50 in test [1] was 9.34; in test [2], 6.32. As to `CCOc1cc2c(cc1OC)-c1cc(=Nc3c(C)cc(C)cc3C)n(CCNC(=O)c3ccnc(Cl)c3)c(=O)n1CC2` [Compound 29], the pIC50 in test [1] is 8.32; in test [2], 6.37. The matching figures for `CCOc1cc2c(cc1OC)-c1cc(=Nc3c(C)cc(C)cc3C)n(CCNC(=O)c3cc[nH]c(=O)c3)c(=O)n1CC2` [Compound 30]: 8.49 and 7.58.

As to `CCOc1cc2c(cc1OC)-c1cc(N(c3c(C)cc(C)cc3C)C3CC(NC(=O)c4c(O)nnn4C)C3)nc(=O)n1CC2` (centres unmarked) [Compound 31], the pIC50 in test [1] was 9.24; in test [2] it was 6.71.

For the compound `COc1cc2c(cc1OC)-c1cc(N(c3c(C)cc(C)cc3C)C3CN(C(N)=O)C3)nc(=O)n1CC2` [Compound 32], the pIC50 in test [1] is 9.68; in test [2], 6.62. On the same counts, the results for `COc1cc2c(cc1OC)-c1cc(=Nc3c(C)cc(C)cc3C)n(CCNC(=O)N3CCn4c(nnc4C(F)(F)F)C3)c(=O)n1CC2` [Compound 33] are 8.32 and 5.42. Take `COc1cc2c(cc1OC)-c1cc(=Nc3c(C)cc(C)cc3C)n(CCN3CCn4c(nnc4C(F)(F)F)C3)c(=O)n1CC2` [Compound 34]: the pIC50 in test [1] is 8.19.

`COc1cc2c(cc1OC)-c1cc(N(c3c(C)cc(C)cc3C)C3CCN(C(=O)c4c(O)nnn4C)C3)nc(=O)n1CC2` (centres unmarked) [Compound 35]: the pIC50 in test [1] was 9.25; in test [2], 5.89. Consider `COc1cc2c(cc1OC)-c1cc(=Nc3c(C)cc(C)cc3C)n(CCNC(=O)c3cnc4n3CCC4)c(=O)n1CC2` [Compound 36], for which the pIC50 in test [1] is 9.05; in test [2], 6.28. In test [1], `COc1cc2c(cc1OC1CCN(C)C1)CCn1c-2cc(=Nc2c(C)cc(C)cc2C)n(CCNC(N)=O)c1=O` (centres unmarked) [Compound 37] gave a pIC50 of 7.22. For the compound `COc1cc2c(cc1OC)-c1cc(=Nc3c(C)cc(C)cc3C)n(CCNC(=O)NCCN3CCOCC3)c(=O)n1CC2` [Compound 38], the pIC50 in test [1] is 8.79; in test [2] it was 5.72. On the same counts, the results for `COc1cc2c(cc1OC)-c1cc(=Nc3c(C)cc(C)cc3C)n(CCNC(=O)c3cccn(C)c3=O)c(=O)n1CC2` [Compound 39] are 9.14 and 7.73. As to `CCn1cccc(C(=O)NCCn2c(=Nc3c(C)cc(C)cc3C)cc3n(c2=O)CCc2cc(OC)c(OC)cc2-3)c1=O` [Compound 40], the results for the pIC50 in test [1] and in test [2] were 8.89 and 7.09, respectively. In the case of `COc1cc2c(cc1OC)-c1cc(=Nc3c(C)cc(C)cc3C)n(CCNC(=O)c3cccn(C4CC4)c3=O)c(=O)n1CC2` [Compound 41], the results for the pIC50 in test [1] and in test [2] were 8.94 and 6.60, respectively. On the same counts, the results for `CCOc1cc2c(cc1OC)-c1cc(N(CCN)c3c(C)cc(C)cc3C)nc(=O)n1CC2` [Compound 42] are 9.21 and 7.12. With `CCOc1cc2c(cc1OC)-c1cc(N(CCNC(=O)c3c(O)nnn3C)c3c(C)cc(C)cc3C)nc(=O)n1CC2` [Compound 43], the pIC50 is 9.72 in test [1] and 7.87 in test [2]. For the compound `COc1cc2c(cc1OC)-c1cc(N(CCNC(=O)c3c(O)nnn3C)c3c(C)cc(C)cc3C)nc(=O)n1CC2` [Compound 44], the pIC50 in test [1] was 10.09; in test [2] it was 6.65. On the same counts, the results for `COc1cc2c(cc1OC)-c1cc(N(CCNC(N)=O)c3c(C)cc(C)cc3C)nc(=O)n1CC2` [Compound 45] are 10.49 and 7.00. The matching figures for `COc1cc2c(cc1OC)-c1cc(N(CCNC(=O)c3cccn(C)c3=O)c3c(C)cc(C)cc3C)nc(=O)n1CC2` [Compound 46]: 10.09 and 7.75.

As for `COc1cc2c(cc1OC)-c1cc(N(c3c(C)cc(C)cc3C)C3CN(C(=O)c4c(O)nnn4C)C3)nc(=O)n1CC2` [Compound 47], the pIC50 in test [1] (setting [3]) was 7.14. For the compound `COc1cc2c(cc1OC)-c1cc(N(CCNC(=O)N3CCOCC3CO)c3c(C)cc(C)cc3C)nc(=O)n1CC2` (centres unmarked) [Compound 48], the pIC50 in test [1] was 9.80; in test [2], 6.24. Consider `COc1cc2c(cc1OC)-c1cc(N(c3c(C)cc(C)cc3C)C3CN(C(=O)c4cnc[nH]4)C3)nc(=O)n1CC2` [Compound 49], for which the pIC50 in test [1] (setting [3]) was 6.49. For the compound `COc1cc2c(cc1OC)-c1cc(N(c3c(C)cc(C)cc3C)C3CN(C(=O)c4[nH]nnc4C)C3)nc(=O)n1CC2` [Compound 50], the pIC50 was 11.30 in test [1] and 7.17 in test [2]. `COc1cc2c(cc1OC)-c1cc(N(c3c(C)cc(C)cc3C)C3CN(C(=O)c4ncon4)C3)nc(=O)n1CC2` [Compound 51]: the pIC50 was 7.05 in test [1] (setting [3]) and 5.84 in test [2] (setting [4]).

For `CCOc1cc2c(cc1OC)-c1cc(=Nc3c(C)cc(C)cc3C)n(CCNC(=O)c3cccn(C)c3=O)c(=O)n1CC2` [Compound 52], the pIC50 in test [1] is 9.43; in test [2], 9.05. With `CCOc1cc2c(cc1OC)-c1cc(=Nc3c(C)cc(C)cc3C)n(CCC(C)(C)O)c(=O)n1CC2` [Compound 54], the pIC50 was 9.37 in test [1] (setting [3]) and 6.16 in test [2] (setting [4]). Regarding `COc1cc2c(cc1OC)-c1c/c(=N\c3c(C)cc(C)cc3C)n(C)c(=O)n1CC2` [Trequinsin Hydrochlorid, Trequinsin hydrochloride, reference compound], the pIC50 in test [1] (setting [3]) was 9.64.
